Laboratory results as given in patent US20080058213A1, “Benzoxazole Compounds” (priority 2004, published 2008).

Legend:
Assay type in all cases: in vivo
[1] = test system: barnyard grass (Echinochloa crusgalli); experiment: Weed control test for paddy field (Test Example 1): barnyard grass; conditions: paddy pots, treated at 1.0 leaf stage of barnyard grass, examined after 3 weeks
From the text: (§1) Paddy field soil was filled in 1/10,000 are pots, kneaded with adequate amounts of water and chemical fertilizer, seeded with barnyard grass (Echinochloa crusgalli), Monochoria (Monochoria vaginalis), Japanese bulrush (Scirpus juncoides) and flat sedge (Cyperus serotinus), and further transplanted with 2.0 leaf stage of rice plant. The pots were maintained under the water-filled condition to a depth of 3 cm.
(§2) Wettable powders containing the compounds (1) as identified in Table 1, which were formulated following Production Example 2, were diluted with adequate amount of water and applied to the pots dropwise with pippet at a prescribed dose of the active ingredients per are, at 1.0 leaf stage of the barnyard grass.
(§3) After placing the pots in a glasshouse which was controlled at an average temperature of 25° C. for 3 weeks, herbicidal effect was examined.
(§4) Evaluation of the herbicidal effect is shown in the following six grades, by comparing the condition of untreated control and growth inhibition (%): • 0: 0%-less than 20% • 1: 20%-less than 40% • 2: 40%-less than 60% • 3: 60%-less than 80% • 4: 80%-less than 100% • 5: 100%.

[2] = test system: Monochoria (Monochoria vaginalis); experiment: Weed control test for paddy field (Test Example 1): Monochoria; conditions: paddy pots, treated at 1.0 leaf stage of barnyard grass, examined after 3 weeks
From the text: as §1, §2, §3, §4

[3] = test system: Japanese bulrush (Scirpus juncoides); experiment: Weed control test for paddy field (Test Example 1): Japanese bulrush; conditions: paddy pots, treated at 1.0 leaf stage of barnyard grass, examined after 3 weeks
From the text: as §1, §2, §3, §4

[4] = test system: flat sedge (Cyperus serotinus); experiment: Weed control test for paddy field (Test Example 1): flat sedge; conditions: paddy pots, treated at 1.0 leaf stage of barnyard grass, examined after 3 weeks
From the text: as §1, §2, §3, §4

rice plant = experiment: Weed control test for paddy field (Test Example 1): phytotoxicity to rice plant; conditions: paddy pots, treated at 1.0 leaf stage of barnyard grass, examined after 3 weeks
From the text: as §1, §2, §3
Evaluation of phytotoxicity is shown in the following six grades, as compared with the condition of untreated control: • 0: normal growth • 1: little damaged • 2: low damaged • 3: medium damaged • 4: serious damaged • 5: complete killed.

[5] = test system: southern crabgrass (Digitaria ciliaris); experiment: Soil treatment test for upland field (Test Example 2): southern crabgrass; conditions: soil treatment before germination, examined after 3 weeks
Procedure, shortened: (§5)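 Pots of upland soil were seeded and covered, then wettable-powder formulations at the prescribed active-ingredient dose were sprayed onto the soil surface before weed germination, in 15 liters water per are. After 3 weeks in a glasshouse at about 25° C., growth inhibition versus untreated control was scored 0 (<20%) to 5 (100%).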

[6] = test system: common lambsquaters (Chenopodium album); experiment: Soil treatment test for upland field (Test Example 2): common lambsquaters; conditions: soil treatment before germination, examined after 3 weeks
Procedure, shortened: as §5

[7] = test system: slender amaranth (Amaranthus viridis); experiment: Soil treatment test for upland field (Test Example 2): slender amaranth; conditions: soil treatment before germination, examined after 3 weeks
Procedure, shortened: as §5

[8] = test system: common purslane (Portulaca oleracea); experiment: Soil treatment test for upland field (Test Example 2): common purslane; conditions: soil treatment before germination, examined after 3 weeks
Procedure, shortened: as §5

[9] = test system: velvetleaf (Abutilon theophrasti); experiment: Soil treatment test for upland field (Test Example 2): velvetleaf; conditions: soil treatment before germination, examined after 3 weeks
Procedure, shortened: as §5

wheat [10] = experiment: Soil treatment test for upland field (Test Example 2): phytotoxicity to wheat; conditions: soil treatment before germination, examined after 3 weeks
corn [11] = experiment: Soil treatment test for upland field (Test Example 2): phytotoxicity to corn; conditions: soil treatment before germination, examined after 3 weeks
soybean [12] = experiment: Soil treatment test for upland field (Test Example 2): phytotoxicity to soybean; conditions: soil treatment before germination, examined after 3 weeks
southern crabgrass = experiment: Foliage treatment test for upland field (Test Example 3): southern crabgrass; conditions: foliage treatment at 1.0-2.0 leaf stage of southern crabgrass, examined after 3 weeks
Procedure, shortened: (§6)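 Wettable powders diluted to the prescribed dose and sprayed at 15 L/are at the 1.0-2.0 leaf stage of southern crabgrass on glasshouse-grown plants (25° C average). Effect graded 0-5 after 3 weeks from growth inhibition versus untreated control (0: <20% to 5: 100%).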

common lambsquaters = experiment: Foliage treatment test for upland field (Test Example 3): common lambsquaters; conditions: foliage treatment at 1.0-2.0 leaf stage of southern crabgrass, examined after 3 weeks
Procedure, shortened: as §6

slender amaranth = experiment: Foliage treatment test for upland field (Test Example 3): slender amaranth; conditions: foliage treatment at 1.0-2.0 leaf stage of southern crabgrass, examined after 3 weeks
Procedure, shortened: as §6

common purslane = experiment: Foliage treatment test for upland field (Test Example 3): common purslane; conditions: foliage treatment at 1.0-2.0 leaf stage of southern crabgrass, examined after 3 weeks
Procedure, shortened: as §6

velvetleaf = experiment: Foliage treatment test for upland field (Test Example 3): velvetleaf; conditions: foliage treatment at 1.0-2.0 leaf stage of southern crabgrass, examined after 3 weeks
Procedure, shortened: as §6

wheat [13] = experiment: Foliage treatment test for upland field (Test Example 3): phytotoxicity to wheat; conditions: foliage treatment at 1.0-2.0 leaf stage of southern crabgrass, examined after 3 weeks
Procedure, shortened: (§7)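 Crops sown in compost-mixed soil pots, kept in a glasshouse at 25° C. average. Effect scored after 3 weeks versus untreated control on a 0–5 scale (0 normal growth, 5 complete kill).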

corn [14] = experiment: Foliage treatment test for upland field (Test Example 3): phytotoxicity to corn; conditions: foliage treatment at 1.0-2.0 leaf stage of southern crabgrass, examined after 3 weeks
Procedure, shortened: as §7

soybean [15] = experiment: Foliage treatment test for upland field (Test Example 3): phytotoxicity to soybean; conditions: foliage treatment at 1.0-2.0 leaf stage of southern crabgrass, examined after 3 weeks
Procedure, shortened: as §7

COCC(=Cc1cccc(C(F)(F)F)c1)c1nc2cc(Br)ccc2o1 [Compound 39]
Herbicidal Effect Barnyard grass ([1]; dose 2.5 g ai/a): 5 (100%) | Herbicidal Effect Barnyard grass ([1]; dose 5 g ai/a): 5 (100%) | Herbicidal Effect Monochoria vaginalis ([2]; dose 2.5 g ai/a): 5 (100%) | Herbicidal Effect Monochoria vaginalis ([2]; dose 5 g ai/a): 5 (100%) | Herbicidal Effect Japanese bulrush ([3]; dose 2.5 g ai/a): 3 (60%-less than 80%) | Herbicidal Effect Japanese bulrush ([3]; dose 5 g ai/a): 4 (80%-less than 100%) | Herbicidal Effect Flat sedge ([4]; dose 2.5 g ai/a): 2 (40%-less than 60%) | Herbicidal Effect Flat sedge ([4]; dose 5 g ai/a): 3 (60%-less than 80%) | Phytotoxicity Rice plant (rice plant; dose 2.5 g ai/a): 0 | Phytotoxicity Rice plant (rice plant; dose 5 g ai/a): 0 | Herbicidal Effect southern crabgrass ([5]; dose 2.5 g ai/a): 4 (80%-less than 100%) | Herbicidal Effect southern crabgrass ([5]; dose 5 g ai/a): 5 (100%) | Herbicidal Effect common lambsquaters ([6]; dose 2.5 g ai/a): 5 (100%) | Herbicidal Effect common lambsquaters ([6]; dose 5 g ai/a): 5 (100%) | Herbicidal Effect slender amaranth ([7]; dose 2.5 g ai/a): 5 (100%) | Herbicidal Effect slender amaranth ([7]; dose 5 g ai/a): 5 (100%) | Herbicidal Effect common purslane ([8]; dose 2.5 g ai/a): 5 (100%) | Herbicidal Effect common purslane ([8]; dose 5 g ai/a): 5 (100%) | Herbicidal Effect velvetleaf ([9]; dose 2.5 g ai/a): 4 (80%-less than 100%) | Herbicidal Effect velvetleaf ([9]; dose 5 g ai/a): 5 (100%) | Phytotoxicity wheat (wheat [10]; dose 2.5 g ai/a): 0 | Phytotoxicity wheat (wheat [10]; dose 5 g ai/a): 0 | Phytotoxicity corn (corn [11]; dose 2.5 g ai/a): 0 | Phytotoxicity corn (corn [11]; dose 5 g ai/a): 1 | Phytotoxicity soybean (soybean [12]; dose 2.5 g ai/a): 0 | Phytotoxicity soybean (soybean [12]; dose 5 g ai/a): 1 | Herbicidal Effect southern crabgrass (southern crabgrass; dose 2.5 g ai/a): 4 (80%-less than 100%) | Herbicidal Effect southern crabgrass (southern crabgrass; dose 5 g ai/a): 5 (100%) | Herbicidal Effect Common lambsquatters (common lambsquaters; dose 2.5 g ai/a): 5 (100%) | Herbicidal Effect Common lambsquatters (common lambsquaters; dose 5 g ai/a): 5 (100%) | Herbicidal Effect slender amaranth (slender amaranth; dose 2.5 g ai/a): 5 (100%) | Herbicidal Effect slender amaranth (slender amaranth; dose 5 g ai/a): 5 (100%) | Herbicidal Effect common purslane (common purslane; dose 2.5 g ai/a): 5 (100%) | Herbicidal Effect common purslane (common purslane; dose 5 g ai/a): 5 (100%) | Herbicidal Effect velvetleaf (velvetleaf; dose 2.5 g ai/a): 4 (80%-less than 100%) | Herbicidal Effect velvetleaf (velvetleaf; dose 5 g ai/a): 5 (100%) | Phytotoxicity wheat (wheat [13]; dose 2.5 g ai/a): 0 | Phytotoxicity wheat (wheat [13]; dose 5 g ai/a): 1 | Phytotoxicity corn (corn [14]; dose 2.5 g ai/a): 0 | Phytotoxicity corn (corn [14]; dose 5 g ai/a): 1 | Phytotoxicity soybean (soybean [15]; dose 2.5 g ai/a): 1 | Phytotoxicity soybean (soybean [15]; dose 5 g ai/a): 1

COCC(=Cc1cccc(C(F)(F)F)c1)c1nc2cc(C(F)(F)F)ccc2o1 [Compound 52]
Herbicidal Effect Barnyard grass ([1]; dose 2.5 g ai/a): 5 (100%) | Herbicidal Effect Barnyard grass ([1]; dose 5 g ai/a): 5 (100%) | Herbicidal Effect Monochoria vaginalis ([2]; dose 2.5 g ai/a): 5 (100%) | Herbicidal Effect Monochoria vaginalis ([2]; dose 5 g ai/a): 5 (100%) | Herbicidal Effect Japanese bulrush ([3]; dose 2.5 g ai/a): 4 (80%-less than 100%) | Herbicidal Effect Japanese bulrush ([3]; dose 5 g ai/a): 5 (100%) | Herbicidal Effect Flat sedge ([4]; dose 2.5 g ai/a): 3 (60%-less than 80%) | Herbicidal Effect Flat sedge ([4]; dose 5 g ai/a): 4 (80%-less than 100%) | Phytotoxicity Rice plant (rice plant; dose 2.5 g ai/a): 0 | Phytotoxicity Rice plant (rice plant; dose 5 g ai/a): 1 | Herbicidal Effect southern crabgrass ([5]; dose 2.5 g ai/a): 5 (100%) | Herbicidal Effect southern crabgrass ([5]; dose 5 g ai/a): 5 (100%) | Herbicidal Effect common lambsquaters ([6]; dose 2.5 g ai/a): 5 (100%) | Herbicidal Effect common lambsquaters ([6]; dose 5 g ai/a): 5 (100%) | Herbicidal Effect slender amaranth ([7]; dose 2.5 g ai/a): 5 (100%) | Herbicidal Effect slender amaranth ([7]; dose 5 g ai/a): 5 (100%) | Herbicidal Effect common purslane ([8]; dose 2.5 g ai/a): 5 (100%) | Herbicidal Effect common purslane ([8]; dose 5 g ai/a): 5 (100%) | Herbicidal Effect velvetleaf ([9]; dose 2.5 g ai/a): 5 (100%) | Herbicidal Effect velvetleaf ([9]; dose 5 g ai/a): 5 (100%) | Phytotoxicity wheat (wheat [10]; dose 2.5 g ai/a): 1 | Phytotoxicity wheat (wheat [10]; dose 5 g ai/a): 1 | Phytotoxicity corn (corn [11]; dose 2.5 g ai/a): 1 | Phytotoxicity corn (corn [11]; dose 5 g ai/a): 1 | Phytotoxicity soybean (soybean [12]; dose 2.5 g ai/a): 0 | Phytotoxicity soybean (soybean [12]; dose 5 g ai/a): 1 | Herbicidal Effect southern crabgrass (southern crabgrass; dose 2.5 g ai/a): 5 (100%) | Herbicidal Effect southern crabgrass (southern crabgrass; dose 5 g ai/a): 5 (100%) | Herbicidal Effect Common lambsquatters (common lambsquaters; dose 2.5 g ai/a): 5 (100%) | Herbicidal Effect Common lambsquatters (common lambsquaters; dose 5 g ai/a): 5 (100%) | Herbicidal Effect slender amaranth (slender amaranth; dose 2.5 g ai/a): 5 (100%) | Herbicidal Effect slender amaranth (slender amaranth; dose 5 g ai/a): 5 (100%) | Herbicidal Effect common purslane (common purslane; dose 2.5 g ai/a): 5 (100%) | Herbicidal Effect common purslane (common purslane; dose 5 g ai/a): 5 (100%) | Herbicidal Effect velvetleaf (velvetleaf; dose 2.5 g ai/a): 5 (100%) | Herbicidal Effect velvetleaf (velvetleaf; dose 5 g ai/a): 5 (100%) | Phytotoxicity wheat (wheat [13]; dose 2.5 g ai/a): 1 | Phytotoxicity wheat (wheat [13]; dose 5 g ai/a): 1 | Phytotoxicity corn (corn [14]; dose 2.5 g ai/a): 1 | Phytotoxicity corn (corn [14]; dose 5 g ai/a): 1 | Phytotoxicity soybean (soybean [15]; dose 2.5 g ai/a): 1 | Phytotoxicity soybean (soybean [15]; dose 5 g ai/a): 2
